Data: PubChem BioAssay (NCI)
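Step 1: Grow cells in 96-well plates. Step 2: Expose to compound for 48 hours at 5 concentrations. Step 3: Interpolate endpoints linearly; if unreached, use highest concentration. GI50 = concentration required for 50% inhibition of growth. At the TGI there is no net growth.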 *1 amine or outer side, *2 acyl side, *3 side chain or, on linkers, in order; H or OH if unused. Where a SMILES comes first, the peptide text is derived from it. CO = O=C([*:1])[*:2]

What was measured:
Assay in all cases: growth of human tumour cells (NCI), 48 h
[1] = system: KM12 colon
[2] = system: MALME-3M melanoma
[3] = system: MDA-MB-231 breast
[4] = system: OVCAR-3 ovarian
[5] = system: SF-268 CNS
[6] = system: SF-539 CNS
[7] = system: SK-OV-3 ovarian
[8] = system: SNB-19 CNS
[9] = system: SNB-75 CNS
[10] = system: HL-60(TB) leukemia

| SMILES | TGI [1] [µM] | TGI [2] [µM] | TGI [3] [µM] | TGI [4] [µM] | TGI [5] [µM] | TGI [6] [µM] | TGI [7] [µM] | TGI [8] [µM] | TGI [9] [µM] | GI50 [3] [µM] | GI50 [4] [µM] | GI50 [5] [µM] | GI50 [6] [µM] | GI50 [7] [µM] | GI50 [8] [µM] | GI50 [9] [µM] | TGI [10] [µM] | GI50 [1] [µM] | GI50 [2] [µM] | GI50 [10] [µM] |
| --- | --- | --- | --- | --- | --- | --- | --- | --- | --- | --- | --- | --- | --- | --- | --- | --- | --- | --- | --- | --- |
| C/C=C/C/C=C/CCC(=O)C1OC1C(N)=O (stereo unspecified) | 29.5 | 32.9 | 31.1 | 32.8 | 26.9 | 30.6 | 81.8 | 32.1 | 27.8 | – | – | – | – | – | – | – | – | – | – | – |
| N#Cc1c(N)nc(N2CCOCC2)c(C#N)c1-c1cccc(O)c1 | – | – | > 100 | > 100 | > 100 | > 100 | > 100 | > 100 | 70.6 | 71.2 | 61.9 | > 100 | > 100 | 70.9 | > 100 | 17.2 | – | – | – | – |
| N#Cc1c(C(N)=O)ncn1Cc1ccccc1 | > 100 | > 100 | – | > 100 | > 100 | > 100 | > 100 | > 100 | > 100 | – | – | – | – | – | – | – | > 100 | – | – | – |
| O=C1CC(c2ccccc2)NCN1 (stereo unspecified) | > 100 | > 100 | – | > 100 | > 100 | – | > 100 | > 100 | > 100 | – | – | – | – | – | – | – | > 100 | – | – | – |
| CCCCCCCCO/N=C\c1c2c(O)c3c(O)c(C)c4c(c3c1O)C(=O)C(C)(O/C=C\C(OC)C(C)C(OC(C)=O)C(C)C(O)C(C)C(O)C(C)/C=C\C=C(\C)C(=O)N2)O4 (stereo unspecified) | 6.36 | – | 5.91 | 2.18 | 8.18 | 9.75 | 6.68 | 8.93 | 6.97 | 1.63 | 0.96 | 2.02 | 2.74 | 1.86 | 2.42 | 1.66 | – | 1.67 | – | – |
| CCC12CC[C@H](C#N)N3CCc4c(n(c5ccccc45)C(=O)C1)C32 (stereo partly specified) | 22.5 | 19.3 | – | 29 | 53.7 | 38.2 | 75 | – | 27.6 | – | – | – | – | – | – | – | – | – | – | – |
| NC1=NN(c2ccccc2)C(=O)C1C(=O)C(=O)Nc1cccc(C(F)(F)F)c1 (stereo unspecified) | > 100 | > 100 | – | > 100 | > 100 | > 100 | > 100 | > 100 | – | – | – | – | – | – | – | – | > 100 | – | – | – |
| Cn1c(Cc2ccccc2)nc2cc3ccccc3cc21 | > 100 | 50.6 | 37.5 | > 100 | > 100 | 37.4 | > 100 | > 100 | – | 16 | 36.4 | 34.7 | 20.6 | 49.6 | 39.3 | – | – | 23.9 | 20.7 | – |
| O=C(O/N=C1/CCC/C1=C\c1ccccc1)c1ccccc1 | > 100 | > 100 | – | > 100 | > 100 | > 100 | > 100 | – | > 100 | – | – | – | – | – | – | – | > 100 | – | – | – |
| O[C@H]1[C@H]2[C@H](O)CCCN2C[C@H]1O | > 100 | > 100 | – | > 100 | > 100 | > 100 | > 100 | > 100 | > 100 | – | – | – | – | – | – | – | > 100 | – | – | – |
| CC(=O)[CH-]C(C)=O.CC(=O)[CH-]C(C)=O.CC(=O)[CH-]C(C)=O.[Cl-].[Hf+4] | > 100 | > 100 | – | > 100 | > 100 | > 100 | > 100 | > 100 | – | – | > 100 | > 100 | > 100 | > 100 | > 100 | – | > 100 | > 100 | > 100 | > 100 |
| C=C1C(=O)O[C@H]2[C@H]1CC/C(Cn1cc(Cn3ccc4cc(Cl)ccc43)nn1)=C\CC[C@@]1(C)O[C@@H]21 | 4.24 | 3.13 | 2.82 | 2.83 | 3.13 | 2.97 | 26.9 | 4.49 | 4.52 | 1.36 | 1.48 | 1.65 | 1.57 | 13.9 | 1.97 | 1.27 | – | 2.01 | 1.58 | – |
| C/C(=N\[N+](C)(C)C)C(c1ccccc1)C1(c2ccccc2)C(c2ccccc2)=C1c1ccccc1 (stereo unspecified) | > 100 | > 100 | – | > 100 | – | > 100 | > 100 | > 100 | – | – | – | – | – | – | – | – | > 100 | – | – | – |
| Cn1cc(C(=O)/C(Cl)=C(\Cl)C(=O)O)c2ccccc21 | > 100 | > 100 | – | > 100 | – | > 100 | > 100 | – | > 100 | – | – | – | – | – | – | – | > 100 | – | – | – |
| Fc1ccc(Nc2ccc3cc(OCCCN4CCOCC4)ccc3n2)cc1F | 5.48 | 7.74 | 4.68 | > 100 | > 100 | 18.7 | > 100 | 7.99 | 17.7 | 1.96 | 7.03 | 6.55 | 3.22 | 8.24 | 2.78 | 2.44 | – | 2.06 | 2.25 | – |
| COc1ccc(C(=O)O)c2c(=O)c3ccccc3[nH]c12 | > 100 | > 100 | – | – | > 100 | > 100 | > 100 | > 100 | – | – | – | – | – | – | – | – | > 100 | – | – | – |
| CO/C=C/c1cc2c(cc1C(OC)OC)OCO2 | > 100 | > 100 | – | 80.9 | > 100 | > 100 | 79.3 | > 100 | 36.8 | – | – | – | – | – | – | – | 18.9 | – | – | – |
| CCC[CH2][Sn]([CH2]CCC)([O]C(=O)c1cccc(F)c1F)[O][Sn]([CH2]CCC)([CH2]CCC)[O]C(=O)c1cccc(F)c1F | 2.22 | 0.284 | 1.19 | 1.64 | 0.541 | 0.722 | 2.23 | 1.7 | 1.52 | 0.218 | 0.493 | 0.157 | 0.208 | 0.915 | 0.573 | 0.317 | – | 0.857 | 0.118 | – |
| CC(C)C(NC(=O)C(CCCN=C(N)N)NC(=O)NC(Cc1ccccc1)C(=O)O)C(=O)NC(C=O)CCCN=C(N)N (stereo not drawn) ({Phe-CO}-Arg-Val-Arg-aldehyde; configuration not given here) | > 5 | > 5 | > 5 | > 5 | > 5 | > 5 | > 5 | > 5 | > 5 | > 5 | > 5 | > 5 | > 5 | > 5 | > 5 | > 5 | – | > 5 | > 5 | – |
| COC1=CC(C)C2C[C@H]3O[C@H](O)C[C@H]4C(C)C(=O)C(O)C([C@@]2(C)C1=O)[C@@]34C (stereo partly specified) | > 100 | > 100 | – | > 100 | – | > 100 | > 100 | – | > 100 | – | – | – | – | – | – | – | – | – | – | – |
| CC(=O)Oc1cc2c(=O)oc3c(OC(C)=O)c(OC(C)=O)c(OC(C)=O)c4c(=O)oc(c1OC(C)=O)c2c34 | > 100 | > 100 | – | > 100 | > 100 | 75.5 | > 100 | > 100 | > 100 | – | – | – | – | – | – | – | > 100 | – | – | – |
| COc1ccc(C2c3cc4c(cc3OC(O)(CO)C2C(=O)O)OCO4)c(OC)c1OC (stereo unspecified) (tested in a mixture with another compound) | – | > 100 | – | > 100 | – | > 100 | > 100 | > 100 | > 100 | – | – | – | – | – | – | – | > 100 | – | – | – |
| CCOC(=O)c1ccc(C(O)CC(=O)OC(C)(C)C)[nH]1 (stereo unspecified) | 61.4 | 24.8 | > 100 | 68.2 | > 100 | – | > 100 | > 100 | > 100 | 13 | 28.5 | 28.7 | – | 32.1 | 42.9 | 37.2 | – | 24 | 0.692 | – |
| O=C(Nc1ccc(N=Nc2ccccc2)cc1)Sc1ccccc1C(=O)O | > 100 | – | – | > 100 | > 100 | > 100 | – | > 100 | > 100 | – | – | – | – | – | – | – | > 100 | – | – | – |
| Cc1ccc(C2=NN(C)COC2C(F)(F)F)cc1 (stereo unspecified) | > 100 | > 100 | – | > 100 | > 100 | > 100 | > 100 | > 100 | > 100 | – | – | – | – | – | – | – | > 100 | – | – | – |
| CC1CC(C)C(=O)C(C(=O)CC2CC(=O)NC2=O)C1 (stereo unspecified) | > 100 | > 100 | – | > 100 | > 100 | > 100 | > 100 | > 100 | > 100 | – | – | – | – | – | – | – | > 100 | – | – | – |
| O=C(CC1(O)C(=O)Nc2ccccc21)c1ccc(O)cc1O (stereo unspecified) | – | > 100 | – | > 100 | > 100 | > 100 | > 100 | > 100 | > 100 | – | – | – | – | – | – | – | > 100 | – | – | – |
| C/C=C/CP(=O)(c1ccccc1)c1ccccc1 | > 100 | > 100 | – | > 100 | – | > 100 | > 100 | > 100 | > 100 | – | – | – | – | – | – | – | > 100 | – | – | – |
